Experimental data taken from paper PMC11696576, “Next generation thiazolyl ketone inhibitors of cytosolic phospholipase A2 α for targeted cancer therapy” (Nature Communications, 2025).
Values joined by “and” are separate entries in the source; they are usually repeats but may differ in a detail not shown here. Equal entries are not always repeated.

What was measured:
[1] = viability of PBMCs (CTG and propidium iodide exclusion); type: cell-based, human; details: human, read-out: PBMC viability relative to 0 µM = 100 (Figure S8a)
Description: (§1) Propidium iodide exclusion was used to assess cell death by flow cytometry. After treatment, the cells were washed once with PBS and stained with 1.4 μg/mL propidium iodide (PI) for 5 min before quantification of PI negative and positive cells using a CytoFLEX flow cytometer (California, United States). An example of the gating strategy to assess PI staining can be found in Fig. S8c. […]
(§2) cells. a. CTG assays were used to assess viability of PBMCs isolated from human blood after treatment with vehicle control (DMSO) or AVX420 at the indicated doses for either (i) 24 hours or (ii) 72 hours. Data are the mean ±stdev of 4 or 5 biological replicates respectively. b. The propidium iodide exclusion assay was used to assess vi-ability of ungated PBMCs treated with AVX420 at the indicated doses for 24 hours .
(§3) Data are the mean ±stdev from 8 biological replicates (1-16 µM) and 5 biological rep- […]
(§4) iodide exclusion in CD3+ lymphocytes (T-cells). Cells appearing in the bottom right quadrant are PI-negative (live) T-cells while cells in the top right quadrant are PI-posi- […]
(§5) (1 picture or pasted object on this page, not shown here)

PBMCs = test: as above; type: cell-based, human; details: for PI Negative (Figure S8b) / PI Positive (Figure S8b): replicates; for PI Negative (Figure S8b) / PI Positive (Figure S8b) / PBMC viability relative to 0 µM = 100 (Figure S8a): listed as AVX420
Description: as §1, §2, §3, §4, §5

## CCCCCCCOc1ccc(OCC(=O)c2nc(C(=O)OC)cs2)cc1 [GK420]
[1]; PBMC 72H, 1 µM, rep1-5
  viability at 72 h, 1 µM: 103%
[1]; PMBC 24H, 0.5 µM, rep1-4
  viability at 24 h, 0.5 µM: 99%
[1]; PMBC 24H, 1 µM, rep1-4
  viability at 24 h, 1 µM: 102%
[1]; PMBC 24H, 2 µM, rep1-4
  viability at 24 h, 2 µM: 98%
[1]; PMBC 24H, 4 µM, rep1-4
  viability at 24 h, 4 µM: 101%
[1]; PMBC 24H, 8 µM, rep1-4
  viability at 24 h, 8 µM: 102%
[1]; PMBC 24H, 16 µM, rep1-4
  viability at 24 h, 16 µM: 102%
[1]; PMBC 24H, 32 µM, rep1-4
  viability at 24 h, 32 µM: 101%
PBMCs; 0.5 µM
  PI Negative (Figure S8b): 87 (3×) and 88 and 86 (2×) and 81 and 79
  PI Positive (Figure S8b): 12 and 14 (2×) and 13 (3×) and 19 and 21
PBMCs; 1 µM
  PI Negative (Figure S8b): 86 (3×) and 88 and 87 (2×) and 81 and 79
  PI Positive (Figure S8b): 12 and 14 (3×) and 13 (2×) and 19 and 21
PBMCs; 2 µM
  PI Negative (Figure S8b): 86 (3×) and 88 and 85 and 81 and 79 and 87
  PI Positive (Figure S8b): 12 and 15 and 14 (3×) and 19 and 21 and 13
PBMCs; 4 µM
  PI Negative (Figure S8b): 87 (2×) and 88 and 85 and 86 and 80 and 79 and 84
  PI Positive (Figure S8b): 12 and 15 and 14 and 20 and 21 and 13 (2×) and 16
PBMCs; 8 µM
  PI Negative (Figure S8b): 86 and 88 and 84 (2×) and 80 and 77 and 85 and 83
  PI Positive (Figure S8b): 12 and 16 (2×) and 20 and 23 and 15 and 17 and 14
PBMCs; 16 µM
  PI Negative (Figure S8b): 86 and 88 and 84 (3×) and 80 and 74 and 81
  PI Positive (Figure S8b): 12 and 16 (3×) and 20 and 26 and 19 and 14
PBMCs; 32 µM
  PI Negative (Figure S8b): 82 and 84 and 79 and 81 and 80
  PI Positive (Figure S8b): 16 and 21 and 19 and 20 and 18
PBMCs; PBMC 72H, 0.5 µM, rep1-5
  PBMC viability relative to 0 µM = 100 (Figure S8a): 100 and 93 (2×) and 120
PBMCs; PBMC 72H, 1 µM, rep1-5
  PBMC viability relative to 0 µM = 100 (Figure S8a): 91 and 93 and 110 and 97
PBMCs; PBMC 72H, 4 µM, rep1-5
  PBMC viability relative to 0 µM = 100 (Figure S8a): 111 and 89 and 93 and 118 and 88
PBMCs; PBMC 72H, 8 µM, rep1-5
  PBMC viability relative to 0 µM = 100 (Figure S8a): 113 and 75 and 87 and 109 and 93
PBMCs; PBMC 72H, 16 µM, rep1-5
  PBMC viability relative to 0 µM = 100 (Figure S8a): 109 and 80 and 83 and 90
PBMCs; PBMC 72H, 32 µM, rep1-5
  PBMC viability relative to 0 µM = 100 (Figure S8a): 104 and 88 and 82 and 76 and 96
PBMCs; PMBC 24H, 0.5 µM, rep1-4
  PBMC viability relative to 0 µM = 100 (Figure S8a): 100 and 97 (2×)
PBMCs; PMBC 24H, 1 µM, rep1-4
  PBMC viability relative to 0 µM = 100 (Figure S8a): 94 and 95
PBMCs; PMBC 24H, 2 µM, rep1-4
  PBMC viability relative to 0 µM = 100 (Figure S8a): 97
PBMCs; PMBC 24H, 4 µM, rep1-4
  PBMC viability relative to 0 µM = 100 (Figure S8a): 97 and 96
PBMCs; PMBC 24H, 8 µM, rep1-4
  PBMC viability relative to 0 µM = 100 (Figure S8a): 105
PBMCs; PMBC 24H, 32 µM, rep1-4
  PBMC viability relative to 0 µM = 100 (Figure S8a): 104
PBMCs; up to a maximum dose tested of 32 µM
  effect on healthy PBMCs: no effect
